According to ChEMBL document CHEMBL2380208, “Novel quinoline derivatives as inhibitors of bacterial DNA gyrase and topoisomerase IV” (Bioorg Med Chem Lett, 2013):
In brackets after ≈: the same amount, converted by molar mass.

Experiments:
[1] = tested on: Staphylococcus aureus; assay: Antibacterial activity against fluoroquinolone-resistant Staphylococcus aureus 1095; format: functional
[2] = tested on: Staphylococcus aureus; assay: Antibacterial activity against fluoroquinolone-resistant Staphylococcus aureus harboring DNA gyrase M121K mutant; format: functional
[3] = tested on: Staphylococcus aureus; assay: Antibacterial activity against fluoroquinolone-resistant Staphylococcus aureus harboring DNA gyrase D83N mutant; format: functional
[4] = Inhibition of Streptococcus pneumoniae DNA gyrase
[5] = Inhibition of Streptococcus pneumoniae topoisomerase 4
[6] = Inhibition of Staphylococcus aureus DNA topoisomerase 4
[7] = Inhibition of human DNA topoisomerase 4
[8] = tested on: Staphylococcus aureus; assay: Antibacterial activity against fluoroquinolone-resistant Staphylococcus aureus 1095 infected in mouse assessed as survival compound administered 0.5 to 4 hrs post-infection measured after 7 days; format: functional; settings: read-out: PD50
[9] = tested on: Staphylococcus aureus; assay: Antibacterial activity against Staphylococcus aureus 1146; format: functional
[10] = target: DNA gyrase (Staphylococcus aureus, UniProt P0A0K8+P20831); assay: Inhibition of Staphylococcus aureus DNA gyrase; format: protein-complex assay
[11] = tested on: Staphylococcus aureus; assay: Antibacterial activity against Staphylococcus aureus; format: functional
[12] = Clearance in rat at 2 mg/kg, iv and 5 mg/kg, po; format: ADME, organism-based; settings: in vivo
[13] = tested on: Streptococcus pyogenes; assay: Antibacterial activity against Streptococcus pyogenes 02C0203 infected in mouse assessed as survival compound administered 0.5 to 4 hrs post-infection measured after 7 days; settings: 02C0203, in Mus musculus, read-out: PD50
[14] = tested on: Streptococcus pyogenes; assay: Antibacterial activity against Streptococcus pyogenes; format: functional
[15] = Volume of distribution at steady state in rat at 2 mg/kg, iv and 5 mg/kg, po; format: ADME, organism-based; settings: in vivo, read-out: Vdss
[16] = target: Voltage-gated inwardly rectifying potassium channel KCNH2 (Homo sapiens, UniProt Q12809); assay: Inhibition of human ERG channel in HEK293 cells by voltage-gated patch clamp technique; format: cell-based

Structure (SMILES)	MIC [1]	MIC [2]	MIC [3]	IC50 [4]	IC50 [5]	IC50 [6]	IC50 [7]	ED50 [8]	MIC [9]	IC50 [10]	MIC90 [11]	clearance [12]	ED50 [13]	MIC90 [14]	Vd [15]	IC50 [16]
COc1ccc2nccc([C@@H](O)CC[C@@H]3CCN(CCSc4cccs4)C[C@@H]3C(=O)O)c2c1	0.1 µg/mL (≈ 0.205 µM)	> 64 µg/mL	> 64 µg/mL	5.85 µM	6.54 µM	84.6 µM	> 200 µM	34.7 mg/kg	0.068 µg/mL (≈ 0.14 µM)	2.42 µM	–	–	–	–	–	–
COc1ccc2nccc(C(O)CC[C@@H]3CCN(C/C=C/c4cc(F)ccc4F)C[C@@H]3C(=O)O)c2c1 (stereo partly specified)	0.5 µg/mL (≈ 1.01 µM)	13 µg/mL (≈ 26.2 µM)	10 µg/mL (≈ 20.1 µM)	6.25 µM	3.75 µM	8.84 µM	100 µM	–	0.25 µg/mL (≈ 0.503 µM)	7.66 µM	–	–	–	–	–	–
COc1ccc2nccc([C@H](O)CC[C@@H]3CCN(C4CC(c5ccccc5)C4)C[C@@H]3C(=O)O)c2c1 (stereo partly specified)	–	–	–	21.7 µM	30 µM	–	> 200 µM	–	0.23 µg/mL (≈ 0.485 µM)	–	–	–	–	–	–	–
COc1ccc2nccc([C@@H](O)CC[C@@H]3CCN(C4CC(c5ccccc5F)C4)C[C@@H]3C(=O)O)c2c1 (stereo partly specified)	≤ 0.0625 µg/mL	> 64 µg/mL	64 µg/mL (≈ 130 µM)	–	–	37 µM	–	–	≤ 0.0625 µg/mL	12.5 µM	–	–	–	–	–	–
COc1ccc2nccc([C@@H](O)CC[C@@H]3CCN(C4CC(c5cccc(F)c5)C4)C[C@@H]3C(=O)O)c2c1 (stereo partly specified)	0.125 µg/mL (≈ 0.254 µM)	32 µg/mL (≈ 65 µM)	32 µg/mL (≈ 65 µM)	–	–	38 µM	–	–	≤ 0.0625 µg/mL	1.56 µM	–	–	–	–	–	–
COc1ccc2nccc([C@@H](O)CC[C@@H]3CCN(C4CC(c5c(F)cccc5F)C4)C[C@@H]3C(=O)O)c2c1 (stereo partly specified)	0.25 µg/mL (≈ 0.49 µM)	23 µg/mL (≈ 45 µM)	32 µg/mL (≈ 62.7 µM)	–	–	> 100 µM	–	16.3 mg/kg	0.125 µg/mL (≈ 0.245 µM)	2.93 µM	0.25 µg/mL (≈ 0.49 µM)	39.7 mL/min/kg	22 mg/kg	1 µg/mL (≈ 1.96 µM)	3 L/kg	–
COc1ccc2nccc([C@@H](O)CC[C@@H]3CCN(C4CC(c5ccc(F)cc5F)C4)C[C@@H]3C(=O)O)c2c1 (stereo partly specified)	0.25 µg/mL (≈ 0.49 µM)	64 µg/mL (≈ 125 µM)	64 µg/mL (≈ 125 µM)	–	–	60 µM	–	–	≤ 0.0625 µg/mL	9.4 µM	–	–	–	–	–	–
COc1ccc2nccc([C@@H](O)CC[C@@H]3CCN(C4CC(c5c(F)ccc(F)c5F)C4)C[C@@H]3C(=O)O)c2c1 (stereo partly specified)	≤ 0.0625 µg/mL	16 µg/mL (≈ 30.3 µM)	8 µg/mL (≈ 15.1 µM)	–	–	35.6 µM	–	–	≤ 0.0625 µg/mL	1.56 µM	–	–	–	–	–	–
COc1ccc2nccc([C@@H](O)CC[C@@H]3CCN(C4CC(c5ccc(F)c(F)c5F)C4)C[C@@H]3C(=O)O)c2c1 (stereo partly specified)	0.5 µg/mL (≈ 0.946 µM)	> 64 µg/mL	> 64 µg/mL	–	–	110 µM	–	–	≤ 0.0625 µg/mL	3.13 µM	–	–	–	–	–	–
COc1ccc2nccc([C@@H](O)CC[C@@H]3CCN(C4CC(c5cc(F)cc(F)c5)C4)C[C@@H]3C(=O)O)c2c1 (stereo partly specified)	0.25 µg/mL (≈ 0.49 µM)	8 µg/mL (≈ 15.7 µM)	8 µg/mL (≈ 15.7 µM)	–	–	15 µM	–	–	≤ 0.0625 µg/mL	1.56 µM	–	–	–	–	–	7.18 µM
COc1ccc2nccc([C@@H](O)CC[C@@H]3CCN(C4CC(c5cc(F)c(Cl)cc5F)C4)C[C@@H]3C(=O)O)c2c1 (stereo partly specified)	1 µg/mL (≈ 1.83 µM)	> 64 µg/mL	> 64 µg/mL	–	–	120 µM	–	–	0.25 µg/mL (≈ 0.459 µM)	4.7 µM	–	–	–	–	–	–
COc1ccc2nccc([C@@H](O)CC[C@@H]3CCN(C4CC(c5cc(F)cc(F)c5F)C4)C[C@@H]3C(=O)O)c2c1 (stereo partly specified)	0.125 µg/mL (≈ 0.236 µM)	8 µg/mL (≈ 15.1 µM)	8 µg/mL (≈ 15.1 µM)	–	–	8.4 µM	–	–	≤ 0.0625 µg/mL	1.56 µM	–	–	–	–	–	30.9 µM
COc1ccc2nccc(C(O)CC[C@@H]3CCN(C[C@@H]4C[C@H]4c4ccccc4)C[C@@H]3C(=O)O)c2c1 (mixture of isomers)	–	–	–	50 µM	7.5 µM	–	150 µM	–	1 µg/mL	–	–	–	–	–	–	–
O=C(O)c1cn(C2CC2)c2cc(N3CCNCC3)c(F)cc2c1=O [CIPROFLOXACIN]	–	–	–	–	–	–	–	–	–	–	> 64 µg/mL	–	–	0.5 µg/mL (≈ 1.51 µM)	–	–
